Experimental data reported in patent US20160031889A1, “ANTIVIRAL INDOLO[2,3-B]QUINOXALINE” (VIRONOVA HERPES AB, priority 2013, published 2016).
Counter-ions that a name gives are not always drawn.

Tests used:
[1] = system: herpes simplex 1 virus (HSV1); experiment: Plaque Assay 1 (plaque counting); format: cell-based; conditions: for plaques seen in plaque assay: concentration and dilution not stated
Method: The compounds prepared in Examples 1-4 were tested in a plaque assay using herpes simplex 1 virus (HSV1), and acyclovir (ACV) as a reference compound. […] The plaque counting results obtained when using the compounds of Examples 1 and 4, and the reference compound ACV, respectively, are shown in Tables 1-3.

[2] = system: HSV-1; conditions: in vitro; cited from earlier work

SMILES | plaques seen in plaque assay [1] | plaque count ([1]; compound 1 uM, 10^1 dilution) | plaque count ([1]; compound 5 uM, 10^1 dilution) | plaque count ([1]; compound 5 uM, 10^2 dilution) | further results
Br.C=CC[N+](C)(C)CCn1c2ccccc2c2nc3cc(C)c(C)cc3nc21 | – | – | – | – | melting point: 248 to 252 °C
Cc1cc2nc3c4cc(Cl)ccc4n(CC(=O)NCCN(C)C)c3nc2cc1C [Example 2, 9-chloro-N-[2-(dimethylamino)ethyl]-2,3-dimethyl-6H-Indolo[2,3-b]quinoxaline-6-acetamide] | no plaques could be seen | – | – | – | –
Cc1cc2nc3c4ccccc4n(CC[N+](C)(C)C)c3nc2cc1C.[I-] [Example 1, 2,3-Dimethyl-6-[2-(trimethylamino)ethyl]-6H-indolo[2,3-b]quinoxaline iodide] | – | 19 | 8 | 2 | plaque count ([1]; compound 1 uM, 10^2 dilution): 3; plaque count ([1]; compound 1 uM, 10^3 dilution): 1
Cc1cc2nc3c4cc(Cl)ccc4n(CC(=S)NCCN(C)C)c3nc2cc1C [Example 3, 9-chloro-N-[2-(dimethylamino)ethyl]-2,3-dimethyl-6H-Indolo[2,3-b]quinoxaline-6-thioacetamide] | no plaques could be seen | – | – | – | –
Nc1nc2c(ncn2COCCO)c(=O)[nH]1 [ACV, acyclovir, reference compound] | – | 15 | 8 | 1 | selectivity ratio for the inhibitory activity against HSV-1 [2]: about 2000; plaque count ([1]; compound 25 uM, 10^1 dilution): 2
Cc1cc2nc3c4ccccc4n(CC[N+](C)(C)C)c3nc2cc1C [Example 4, 2,3-dimethyl-6-[2-(trimethylamino)ethyl]-6H-indolo[2,3-b]quinoxaline methyl sulfate] | – | 11 | 2 | – | –
